Measured values reported in US10233191B2, “Fused piperidine amides as modulators of ion channels” (Vertex Pharmaceuticals Incorporated, priority 2013, dated 2019).

Target: T1, NaV 1.7 (Homo sapiens, UniProt Q15858)
T1 construct: expressed in transfected cells; host or cells: HEK cells
Experiment: E-VIPR optical membrane potential assay with electrical stimulation
Format: cell-based
Conditions: active against one or more sodium channels; assay/subtype not specified in Table 4; read-out: IC50 Binned Activity Data
Method in brief: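 HEK cells expressing human NaV1.7, loaded with CC2-DMPE/DiSBAC6(3) FRET dyes, then exposed to compounds for 20-35 min at room temperature (0.625% DMSO). Electrical stimulation applied for 9 s with 400 Hz scanning. Read-out is the background-subtracted 460/580 nm emission ratio, normalized.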

T1 sequence (Q15858 whole entry): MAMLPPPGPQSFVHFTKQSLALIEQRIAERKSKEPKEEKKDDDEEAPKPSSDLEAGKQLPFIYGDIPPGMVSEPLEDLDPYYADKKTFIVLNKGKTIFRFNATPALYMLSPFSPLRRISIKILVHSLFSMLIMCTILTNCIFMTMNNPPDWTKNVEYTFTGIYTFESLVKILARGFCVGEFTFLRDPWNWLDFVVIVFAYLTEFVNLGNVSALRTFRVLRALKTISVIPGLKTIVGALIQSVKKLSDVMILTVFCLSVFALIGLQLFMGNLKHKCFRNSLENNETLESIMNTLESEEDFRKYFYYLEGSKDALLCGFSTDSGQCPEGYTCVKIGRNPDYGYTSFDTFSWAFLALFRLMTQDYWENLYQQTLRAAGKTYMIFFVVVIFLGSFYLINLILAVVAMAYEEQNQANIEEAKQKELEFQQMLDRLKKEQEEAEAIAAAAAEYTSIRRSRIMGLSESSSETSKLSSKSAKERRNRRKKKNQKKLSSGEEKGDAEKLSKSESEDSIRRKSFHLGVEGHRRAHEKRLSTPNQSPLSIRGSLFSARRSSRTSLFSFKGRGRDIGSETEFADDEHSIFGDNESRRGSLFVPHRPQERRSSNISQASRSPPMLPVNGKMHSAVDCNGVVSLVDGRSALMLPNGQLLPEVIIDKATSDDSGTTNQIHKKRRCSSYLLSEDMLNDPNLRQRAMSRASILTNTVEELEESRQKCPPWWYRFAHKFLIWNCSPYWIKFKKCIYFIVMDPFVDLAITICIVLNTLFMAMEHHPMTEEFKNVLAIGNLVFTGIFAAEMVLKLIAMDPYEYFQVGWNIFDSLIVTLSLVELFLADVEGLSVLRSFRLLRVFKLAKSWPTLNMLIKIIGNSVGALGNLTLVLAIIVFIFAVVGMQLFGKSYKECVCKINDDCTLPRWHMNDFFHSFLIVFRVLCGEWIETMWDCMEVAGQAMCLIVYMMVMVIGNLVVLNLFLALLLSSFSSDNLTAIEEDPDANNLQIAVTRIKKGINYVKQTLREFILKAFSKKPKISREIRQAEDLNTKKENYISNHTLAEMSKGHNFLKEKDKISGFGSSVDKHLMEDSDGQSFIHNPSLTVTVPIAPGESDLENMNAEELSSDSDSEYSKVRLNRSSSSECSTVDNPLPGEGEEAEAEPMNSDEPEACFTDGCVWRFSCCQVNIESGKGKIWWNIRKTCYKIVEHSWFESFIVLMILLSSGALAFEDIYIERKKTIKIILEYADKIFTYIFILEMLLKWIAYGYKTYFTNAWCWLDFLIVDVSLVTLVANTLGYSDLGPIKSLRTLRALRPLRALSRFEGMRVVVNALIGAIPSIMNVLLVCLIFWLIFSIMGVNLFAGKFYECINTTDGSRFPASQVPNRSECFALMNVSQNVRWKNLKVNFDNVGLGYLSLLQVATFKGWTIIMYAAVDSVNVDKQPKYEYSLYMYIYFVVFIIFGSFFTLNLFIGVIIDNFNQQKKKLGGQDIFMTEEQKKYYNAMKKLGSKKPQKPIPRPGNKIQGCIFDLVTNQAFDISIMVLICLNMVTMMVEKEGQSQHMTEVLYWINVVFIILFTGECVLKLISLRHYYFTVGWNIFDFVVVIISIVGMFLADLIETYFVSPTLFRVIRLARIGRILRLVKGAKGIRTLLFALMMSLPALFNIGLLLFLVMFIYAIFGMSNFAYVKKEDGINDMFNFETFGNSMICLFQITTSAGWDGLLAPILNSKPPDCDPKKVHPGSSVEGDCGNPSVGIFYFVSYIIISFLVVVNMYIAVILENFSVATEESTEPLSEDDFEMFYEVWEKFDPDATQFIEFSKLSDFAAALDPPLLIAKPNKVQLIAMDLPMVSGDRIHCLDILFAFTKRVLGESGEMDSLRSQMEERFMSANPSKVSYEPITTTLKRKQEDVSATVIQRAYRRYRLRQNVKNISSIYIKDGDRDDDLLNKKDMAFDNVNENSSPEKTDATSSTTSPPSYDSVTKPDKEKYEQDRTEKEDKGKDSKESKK

Row | SMILES | IC50
1 | COc1nc(C(=O)N2CC[C@]3(c4cccc(F)c4)OCOC3C2)ccc1OCC1CC=CC1 (stereo partly shown) [Compound 232] | ≤ 2000 nM
2 | COc1nc(C(=O)N2CC[C@]3(c4cccc(F)c4)OCOC3C2)ccc1OC1CC(F)(F)C1 (stereo partly shown) [Compound 233] | ≤ 2000 nM
3 | COc1nc(C(=O)N2CC[C@]3(c4cccc(F)c4)OCOC3C2)ccc1OC(C)C(F)(F)C(F)F (stereo partly shown) [Compound 234] | ≤ 2000 nM
4 | COc1nc(C(=O)N2CC[C@]3(c4cccc(F)c4)OCOC3C2)ccc1OCC1CCC(F)(F)C1 (stereo partly shown) [Compound 235] | ≤ 2000 nM
5 | COc1nc(C(=O)N2CC[C@]3(c4cccc(F)c4)OCOC3C2)ccc1OCC1CC2C(C1)C2(F)F (stereo partly shown) [Compound 236] | ≤ 2000 nM
6 | COc1nc(C(=O)N2CC[C@]3(c4cccc(F)c4)OCOC3C2)ccc1OCC1CC2C(C1)C2(F)F (stereo partly shown) [Compound 237] | ≤ 2000 nM
7 | O=C(c1ccc(OCCOC(F)(F)F)c(Cl)c1)N1CCC2(c3ccccn3)CC2C1 (stereo not shown) [Compound 238] | ≤ 2000 nM
8 | COc1cc(C(=O)N2CC[C@]3(c4cccc(F)c4)OCOC3C2)ccc1OC(C)C(F)(F)C(F)F (stereo partly shown) [Compound 239] | ≤ 2000 nM
9 | COc1cc(C(=O)N2CC[C@]3(c4cccc(F)c4)OCOC3C2)ccc1OCC1CC(F)C1 (stereo partly shown) [Compound 240] | ≤ 2000 nM
10 | COc1cc(C(=O)N2CC[C@]3(c4cccc(F)c4)OCOC3C2)ccc1OCC1CCC1 (stereo partly shown) [Compound 241] | 2000 to 5000 nM
11 | COc1cc(C(=O)N2CC[C@]3(c4cccc(Cl)c4)OCOC3C2)ccc1O[C@H](C)C(F)(F)F (stereo partly shown) [Compound 243] | ≤ 2000 nM
12 | COc1cc(C(=O)N2CC[C@]3(c4cccc(Cl)c4)OCOC3C2)ccc1O[C@@H](C)C(F)(F)F (stereo partly shown) [Compound 244] | ≤ 2000 nM
13 | COc1ccnc([C@]23CCN(C(=O)c4ccc(OCCOC(F)(F)F)c(Cl)c4)CC2OCO3)c1 (stereo partly shown) [Compound 245] | ≤ 2000 nM
14 | COc1ccnc([C@]23CCN(C(=O)c4ccc(OCC5CC(F)(F)C5)c(OC)n4)CC2OCO3)c1 (stereo partly shown) [Compound 246] | ≤ 2000 nM
15 | O=C(c1ccc(OCCOC(F)(F)F)c(Cl)c1)N1CC[C@@]2(c3ccccn3)C(C1)C2(F)F (stereo partly shown) [Compound 247] | ≤ 2000 nM
16 | O=C(c1ccc(OCCOC(F)(F)F)c(Cl)c1)N1CC[C@]2(c3cc(C(F)(F)F)ccn3)OCOC2C1 (stereo partly shown) [Compound 248] | ≤ 2000 nM
17 | CCOc1nc(C(=O)N2CC[C@]3(c4cccc(F)c4)OCOC3C2)ccc1OCCOC(F)(F)F (stereo partly shown) [Compound 249] | ≤ 2000 nM
18 | COc1nc(C(=O)N2CC[C@]3(c4cc(C(F)(F)F)ccn4)OCOC3C2)ccc1OCC1CC(F)(F)C1 (stereo partly shown) [Compound 250] | ≤ 2000 nM
19 | COc1cc(C(=O)N2CC[C@]3(c4cc(C(F)(F)F)ccn4)OCOC3C2)ccc1OCCC(F)(F)F (stereo partly shown) [Compound 251] | ≤ 2000 nM
20 | COc1cc(C(=O)N2CC[C@]3(c4cccc(F)c4)OCOC3C2)ccc1OCCC1CC1(F)F (stereo partly shown) [Compound 252] | ≤ 2000 nM
21 | O=C(c1ccc(OCCOC(F)(F)F)c(Cl)c1)N1CC[C@@]2(c3ccccn3)COC2C1 (stereo partly shown) [Compound 253] | ≤ 2000 nM
22 | COc1nc(C(=O)N2CC[C@]3(c4cccc(F)c4)OCOC3C2)ccc1OCC1CC(F)(F)C1(F)F (stereo partly shown) [Compound 254] | ≤ 2000 nM
23 | O=C(c1ccc(OCCOC(F)(F)F)c(Cl)c1)N1CC[C@]2(c3cccc(F)c3)OCOC2C1 (stereo partly shown) [Compound 255] | ≤ 2000 nM

Row | SMILES | IC50
24 | Cc1cc(C(=O)N2CC[C@]3(c4cccc(F)c4)OCOC3C2)ccc1OCC(C)(C)F (stereo partly shown) [Compound 256] | ≤ 2000 nM
25 | COc1cc(C(=O)N2CC[C@]3(c4cccc(F)c4F)OCOC3C2)ccc1O[C@H](C)C(F)(F)F (stereo partly shown) [Compound 257] | ≤ 2000 nM
26 | COc1cc(C(=O)N2CC[C@]3(c4cccc(F)c4F)OCOC3C2)ccc1O[C@@H](C)C(F)(F)F (stereo partly shown) [Compound 258] | ≤ 2000 nM
27 | COc1cc(C(=O)N2CCC3(c4ccccn4)C(C2)C3(F)F)ccc1OCC1CC(F)(F)C1 (stereo not shown) [Compound 259] | ≤ 2000 nM
28 | COc1cc(C(=O)N2CCC3(c4ccccn4)C(C2)C3(F)F)ccc1OCCOC(F)(F)F (stereo not shown) [Compound 260] | ≤ 2000 nM
29 | O=C(c1ccc(S(=O)(=O)C(F)F)cc1)N1CC[C@]2(c3cccc(F)c3)OCOC2C1 (stereo partly shown) [Compound 261] | > 5000 nM
30 | COc1nc(C(=O)N2CC[C@]3(c4cccc(F)c4F)OCOC3C2)ccc1OCC(F)(F)C(F)F (stereo partly shown) [Compound 262] | ≤ 2000 nM
31 | COc1nc(C(=O)N2CC[C@]3(c4cccc(F)c4F)OCOC3C2)ccc1OC(C)C(F)(F)F (stereo partly shown) [Compound 263] | ≤ 2000 nM
32 | COc1nc(C(=O)N2CC[C@]3(c4cccc(F)c4)OCOC3C2)ccc1OC(C)C(F)(F)F (stereo partly shown) [Compound 264] | ≤ 2000 nM
33 | COc1nc(C(=O)N2CC[C@]3(c4ccccc4)OCOC3C2)ccc1OCC1(C(F)(F)F)CC1 (stereo partly shown) [Compound 265] | ≤ 2000 nM
34 | COc1cc(C(=O)N2CC[C@@]3(c4ccccn4)CC3C2)ccc1OCCOC(F)(F)F (stereo partly shown) [Compound 266] | ≤ 2000 nM
35 | COc1nc(C(=O)N2CC[C@]3(c4cccc(C(F)(F)F)n4)OCOC3C2)ccc1OCC1CC(F)(F)C1 (stereo partly shown) [Compound 267] | ≤ 2000 nM
36 | COc1nc(C(=O)N2CC[C@]3(c4cccc(F)c4)OCOC3C2)ccc1OCC1(C(F)(F)F)CC1 (stereo partly shown) [Compound 268] | ≤ 2000 nM
37 | [2H]C1([2H])OC2CN(C(=O)c3ccc(OCC4(C(F)(F)F)CC4)c(OC)n3)CC[C@]2(c2cc(F)cc(F)c2)O1 (stereo partly shown) [Compound 269] | ≤ 2000 nM
38 | COc1nc(C(=O)N2CC[C@]3(c4cccc(Cl)c4)OCOC3C2)ccc1OCC1(C(F)(F)F)CC1 (stereo partly shown) [Compound 270] | ≤ 2000 nM
39 | COc1nc(C(=O)N2CC[C@]3(c4cccc(F)c4F)OCOC3C2)ccc1OCC1(C(F)(F)F)CC1 (stereo partly shown) [Compound 271] | ≤ 2000 nM
40 | COc1nc(C(=O)N2CC[C@]3(c4cccc(C(F)(F)F)n4)OCOC3C2)ccc1OCCOC(F)(F)F (stereo partly shown) [Compound 272] | ≤ 2000 nM
41 | COc1cc(C(=O)N2CC[C@]3(c4cccc(C(F)(F)F)n4)OCOC3C2)ccc1OC(C)C(F)(F)F (stereo partly shown) [Compound 273] | ≤ 2000 nM
42 | COc1cc(C(=O)N2CC[C@]3(c4cccc(C(F)(F)F)n4)OCOC3C2)ccc1OCCC(F)(F)F (stereo partly shown) [Compound 274] | ≤ 2000 nM
43 | COc1cc(C(=O)N2CC[C@]3(c4cccc(C(F)(F)F)n4)OCOC3C2)ccc1OCC1CC(F)(F)C1 (stereo partly shown) [Compound 275] | ≤ 2000 nM
44 | COc1cc(C(=O)N2CC[C@]3(c4ccccn4)COC[C@@H]3C2)ccc1OCCOC(F)(F)F [Compound 276] | > 5000 nM
45 | COc1cc(C(=O)N2CC[C@]3(c4ccccn4)C(=O)OCC3C2)ccc1OCCOC(F)(F)F (stereo partly shown) [Compound 277] | ≤ 2000 nM
46 | COc1cc(C(=O)N2CC[C@@]3(c4ccccn4)COCC3C2)ccc1OCCOC(F)(F)F (stereo partly shown) [Compound 278] | ≤ 2000 nM

Row | SMILES | IC50
47 | [2H]C1([2H])OC2CN(C(=O)c3ccc(OCC4CC(F)(F)C4)c(OC)n3)CC[C@]2(c2cccc(F)c2)O1 (stereo partly shown) [Compound 279] | ≤ 2000 nM
48 | [2H]C1([2H])OC2CN(C(=O)c3ccc(OCC4CC(F)(F)C4)c(OC)n3)CC[C@]2(c2cc(F)cc(F)c2)O1 (stereo partly shown) [Compound 280] | ≤ 2000 nM
49 | COc1nc(C(=O)N2CC[C@]3(c4cccc(F)c4F)OCOC3C2)ccc1OCC1CC(F)(F)C1 (stereo partly shown) [Compound 281] | ≤ 2000 nM
50 | COc1cc(C(=O)N2CC[C@]3(c4cccc(F)c4F)OCOC3C2)ccc1OCCC(F)(F)F (stereo partly shown) [Compound 282] | ≤ 2000 nM
51 | COc1cc(C(=O)N2CC[C@]3(c4cccc(Cl)c4)OCOC3C2)ccc1OCCOC(F)(F)F (stereo partly shown) [Compound 283] | ≤ 2000 nM
52 | [2H]C1([2H])OC2CN(C(=O)c3ccc(OCC4CCC4)c(OC)n3)CC[C@]2(c2cccc(F)c2)O1 (stereo partly shown) [Compound 284] | ≤ 2000 nM
53 | COc1cc(C(=O)N2CCC3(c4ccccn4)CC3C2)ccc1OCCOC(F)(F)F (stereo not shown) [Compound 285] | ≤ 2000 nM
54 | COc1cc(C(=O)N2CC[C@]3(c4cc(F)ccc4F)OCOC3C2)ccc1OC(C)C(F)(F)F (stereo partly shown) [Compound 286] | ≤ 2000 nM
55 | COc1cc(C(=O)N2CC[C@]3(c4cc(F)ccc4F)OCOC3C2)ccc1OCCC(F)(F)F (stereo partly shown) [Compound 287] | ≤ 2000 nM
56 | COc1cc(C(=O)N2CC[C@]3(c4cc(F)ccc4F)OCOC3C2)ccc1OCC1CC(F)(F)C1 (stereo partly shown) [Compound 288] | ≤ 2000 nM
57 | COc1nc(C(=O)N2CC[C@]3(c4cc(F)ccc4F)OCOC3C2)ccc1OCCOC(F)(F)F (stereo partly shown) [Compound 289] | ≤ 2000 nM
58 | COc1cc(C(=O)N2CC[C@]3(c4cccc(C#N)c4)OCOC3C2)ccc1OC(C)C(F)(F)F (stereo partly shown) [Compound 290] | > 5000 nM
59 | COc1cc(C(=O)N2CC[C@]3(c4cccc(C#N)c4)OCOC3C2)ccc1OCC1CC(F)(F)C1 (stereo partly shown) [Compound 291] | ≤ 2000 nM
60 | COc1nc(C(=O)N2CC[C@]3(c4cccc(C#N)c4)OCOC3C2)ccc1OCCOC(F)(F)F (stereo partly shown) [Compound 292] | ≤ 2000 nM
61 | COc1cc(C(=O)N2CC[C@]3(c4cccc(C#N)c4)OCOC3C2)ccc1OCCOC(F)(F)F (stereo partly shown) [Compound 293] | ≤ 2000 nM
62 | O=C(c1cnc(OCCOC(F)(F)F)c(Cl)c1)N1CC[C@]2(c3ccccn3)OCOC2C1 (stereo partly shown) [Compound 294] | ≤ 2000 nM
63 | O=C(c1cnc(OCCOC(F)(F)F)c(Cl)c1)N1CC[C@]2(c3ccccc3)OCOC2C1 (stereo partly shown) [Compound 295] | ≤ 2000 nM
64 | O=C(c1cnc(OCCOC(F)(F)F)c(Cl)c1)N1CCC2(c3ccc(F)cc3)CC2C1 (stereo not shown) [Compound 296] | 2000 to 5000 nM
65 | COc1cc(C(=O)N2CCC3(c4ccc(F)cc4)CC3C2)ccc1OC(C)C(F)(F)F (stereo not shown) [Compound 297] | > 5000 nM
66 | COc1cc(C(=O)N2CCC3(c4ccc(F)cc4)CC3C2)ccc1OCC1CC(F)(F)C1 (stereo not shown) [Compound 298] | ≤ 2000 nM
67 | COc1nc(C(=O)N2CCC3(c4ccc(F)cc4)CC3C2)ccc1OCCOC(F)(F)F (stereo not shown) [Compound 299] | ≤ 2000 nM
